Results as given in publication PMC8001783, “New Lignanamides with Antioxidant and Anti-Inflammatory Activities Screened Out and Identified from Warburgia ugandensis Combining Affinity Ultrafiltration LC-MS with SOD and XOD Enzymes” (Antioxidants, 2021).
“And” between values parts separate entries of the source, which are not always exact repeats. Equal entries are not always repeated.

Columns and labels:
[1] = biological target: T1, COX-2 (human) (Homo sapiens, UniProt P35354); assay: In vitro COX-2 inhibitory assay (COX-2 (human) inhibitor screening kit); type: biochemical; details: for COX-2 inhibitory activity compared with the positive control indomethacin: in words, Figure 7; for IC50: fluorescence, ex 560 nm / em 590 nm, triplicate
T1 construct: purchased Beyotime Biotechnology (Shanghai, China) S0168
T1 sequence (P35354 18-604): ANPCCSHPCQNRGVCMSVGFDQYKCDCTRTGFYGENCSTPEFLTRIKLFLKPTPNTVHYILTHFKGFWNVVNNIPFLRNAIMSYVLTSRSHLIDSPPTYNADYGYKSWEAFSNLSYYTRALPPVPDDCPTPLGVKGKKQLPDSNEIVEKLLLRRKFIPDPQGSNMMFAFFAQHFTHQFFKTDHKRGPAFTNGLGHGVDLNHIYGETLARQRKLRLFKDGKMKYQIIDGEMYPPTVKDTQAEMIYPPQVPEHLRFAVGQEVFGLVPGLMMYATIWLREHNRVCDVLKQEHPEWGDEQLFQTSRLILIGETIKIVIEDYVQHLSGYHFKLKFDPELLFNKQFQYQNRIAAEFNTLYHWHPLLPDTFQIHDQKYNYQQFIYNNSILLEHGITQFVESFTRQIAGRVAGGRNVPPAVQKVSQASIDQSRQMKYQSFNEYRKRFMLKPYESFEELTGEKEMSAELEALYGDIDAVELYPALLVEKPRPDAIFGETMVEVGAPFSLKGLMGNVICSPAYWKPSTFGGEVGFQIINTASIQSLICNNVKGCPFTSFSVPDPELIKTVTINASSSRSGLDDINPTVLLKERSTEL
Protocol: Firstly, samples were dissolved in DMSO, and prepared into a series of solutions with different concentrations. COX-2 cofactor working solution, COX-2 working solution, COX-2 probe, and COX-2 substrate were prepared according to manufacturer’s instructions, and then diluted 10 times with COX-2 assay buffer, respectively. Secondly, 150 µL Tris-HCl (pH = 7.8), 10 µL COX-2 cofactor working solution, 10 µL COX-2 working solution, and 10 µL sample solution were sequentially added in the 96-well black plates, mixed and incubated at 37 °C for 10 min. The COX-2 working solution of the blank control group was replaced with an equal volume of COX-2 assay buffer, and the sample was replaced with an equal volume of DMSO; the sample of the 100% enzyme activity control group was replaced with an equal volume of DMSO. Thirdly, 10 µL COX-2 probe was added into each well. Finally, 10 µL of COX-2 substrate was quickly added into each well, and incubated at 37 °C in the darkness for 5 min, and followed by the fluorescence measurement. The excitation and emission wavelengths were 560 nm and 590 nm, respectively. […] The experiments were performed in triplicate. The COX-2 inhibitory activity was expressed as IC50. The inhibition of COX-2 was calculated according to the following formula:COX-2 inhibitory activity (%) = (RFU100%Enzyme − RFUSample)/ (RFU100%Enzyme − RFUBlank) × 100,(3) where COX-2 inhibitory activity (%) was plotted against the concentration of samples to acquire the IC50. RFU100%Enzyme, relative fluorescence unit of 100% enzyme control group; RFUSample, relative fluorescence unit of sample; RFUBlank, relative fluorescence unit of blank group.

[2] = ABTS free radical scavenging assay; details: pure compounds; 30 min, 734 nm, n = 3
Protocol: The ABTS free radical scavenging activities of extracts and pure compounds from stem barks of W. ugandensis were tested according to previous studies with slight modifications. ABTS^+ solution was prepared by mixing equal volumes of potassium persulfate (4.9 mM in H2O) and ABTS (7.0 mM in H2O) and then incubated for 12 h in the darkness. The prepared ABTS^+ solution was diluted with MeOH to ensure an absorbance value about 0.700 ± 0.005 at 734 nm. Firstly, 10 µL of appropriately diluted solution of samples was added to the 190 µL ABTS^+ solution in 96-well plate. Secondly, the mixtures were gently shaken and put at room temperature for 30 min in the darkness. Finally, the absorbance was recorded at 734 nm with multifunctional microplate reader. Trolox was used as positive control, and MeOH was used as blank control. Samples and controls were tested in triplicate (n = 3). The antioxidant activities of ABTS were expressed as IC50 and TEAC values. The inhibition of the ABTS radicals was calculated according to the following formula:ABTS scavenging activity (%) = (1 − absorbance of sample/absorbance of blank control) × 100,(2) where ABTS scavenging activities (%) were plotted against the concentration of samples to acquire the IC50.

[3] = system: LPS-induced NO production in RAW 264.7 macrophages; design: method as in doi:10.5012/bkcs.2013.34.10.3105, PMID 29177586, PMID 31888376; details: cited from earlier work

Row | Compound | COX-2 inhibitory activity compared with the positive control indomethacin [1] | IC50 [2] | inhibitory effect against LPS-induced NO production [3] | IC50 [1]
1 | 1-(3,4-dihydroxy-5-methoxyphenyl)-1,2-dihydroxy-7,8-dihydroxy-N-[(3,4-dihydroxyphenyl)-ethyl]-N′-[(4-hydroxyphenyl)-ethyl]-6-methoxynaphthalene-2,3-dicarboxamide [compound 11] | almost the same inhibitory activities | 80 ± 10.3 µM |  | 
2 | C[C@@H]1O[C@@H](O[C@@H]2[C@@H](O)[C@H](O)[C@@H](CO)O[C@H]2c2cc(-c3cc(=O)c4c(O)cc(O)cc4o3)cc(O)c2O)[C@H](O)[C@H](O)[C@H]1O [compound 1, 2-[3-[2-O-(6-deoxy-α-L-mannopyranosyl)-β-D-glucopyranosyl]-4,5-dihydroxyphenyl]-5,7-dihydroxy-4H-1-benzopyran-4-one] | almost the same inhibitory activities | 62.5 ± 4.2 µM |  | 
3 | O=C(/C=C/c1ccc(O)c(O)c1)NCCc1ccc(O)cc1 [compound 7, N-trans-caffeoyltyramine] | almost the same inhibitory activities | 463 ± 157 µM | good inhibitory effects | 
4 | COc1cc(C2c3c(cc(OC)c(O)c3O)C=C(C(=O)NCCc3ccc(O)cc3)C2C(=O)NCCc2ccc(O)cc2)cc(O)c1O (centres unmarked) [compound 13] |  | 69.8 ± 6.3 µM |  | 0.713 ± 0.322 µM
5 | COc1cc(C2c3c(cc(O)c(O)c3OC)C=C(C(=O)NCCc3ccc(O)cc3)C2C(=O)NCCc2ccc(O)cc2)cc(O)c1O (centres unmarked) [compound 14] |  | 5.38 µM and 5.4 µM |  | 0.123 ± 0.004 µM
